# Assays:
# [1] = test system: HT-29 human colorectal adenocarcinoma xenograft; format: in vivo; conditions: for T/C: D29, 100×ΔT/ΔC for ΔT>0; for T/C / Mean Volume Day 1 / Mean Volume Day 29 / Mean Volume Change (ΔT): Cpd A 20 mg/kg po bid x 28, Cpd B 25 mg/kg po qd x 28, cetuximab 20 mg/kg ip biwk x 4, paclitaxel 30 mg/kg iv qod x 5; for Mean Volume Day 1: Day 1, start of dosing; for Mean Volume Change (ΔT): between D1 and D29; for Mean BW Nadir, day of nadir / Deaths NTR / Deaths TR / Regressions CR / Regressions PR: doses as in table; for Deaths NTR / Deaths TR / Regressions CR / Regressions PR: n = 10 per group; for Statistical Significance vs G1: vs Group 1 (vehicles), tumor volume change D1-D29
# Experimental: A fresh suspension was prepared every two weeks and stored at room temperature.
# A fresh suspension was prepared weekly and stored at 4° C.
# Dosing solutions were freshly prepared for one group at a time.
# Each agent was administered at a single dose level, individually and in dual and triple combinations, that were initiated on Day 1 (D1) in female nude mice with established subcutaneous tumors. […] Efficacy was determined from mean tumor volume changes between D1 and D29. Prism summarizes test results as not significant (ns) at P>0.05, significant (symbolized by “*”) at 0.01<P≦0.05, very significant (“**”) at 0.001<P≦0.01, and extremely significant (“***”) at P≦0.001.
# For the purpose of statistical analyses, ΔTV, the difference in tumor volume between D1 (the start of dosing) and the endpoint day, was determined for every animal. […] The […] values are negative represent net tumor reduction for a group. […] Response to Combination Therapies (Groups 5-8)
# [2] = test system: LS411N; test: 72 hr cell titer Glo proliferation assay, LS411N; format: cell-based; conditions: Homo sapiens, LS-411N, single agent, BRAFV600E
# Experimental: (§1) All cell lines express the BRAFV600E protein, except MDST8 which expresses the BRAFV600K variant. Cells harboring known or putative activating mutations in the PI3Kα gene are marked with a (*) and cells with PTEN loss marked with a (#). Cell proliferation was measured in 72 hr cell titer Glo™ assays and all results shown are the result of at least triplicate measurements. […] Interactions were deemed synergistic when scores ≧2.0 where observed.
# [3] = test system: SNU-C5; test: 72 hr cell titer Glo proliferation assay, SNU-C5; format: cell-based; conditions: single agent, SNU-C5 (PI3Kα mutation), BRAFV600E
# Experimental: as §1
# [4] = target: CYP3A4 (Homo sapiens, UniProt P08684); test: CYP3A4 interaction; format: in vitro ADME
# [5] = test system: BRAF-mutant CRC-derived cell lines; test: Proliferation of BRAF-mutant CRC-derived cell lines, panel summary; format: cell-based; conditions: all cell lines tested
# Experimental: as §1
# [6] = test system: HT-29; test: 72 hr cell titer Glo proliferation assay, HT-29; format: cell-based; conditions: Homo sapiens, single agent, HT-29 (PI3Kα mutation), BRAFV600E
# Experimental: as §1
# [7] = test system: OUMS-23; test: 72 hr cell titer Glo proliferation assay, OUMS-23; format: cell-based; conditions: single agent, OUMS-23 (PTEN loss), BRAFV600E
# Experimental: as §1
# [8] = target: T1, BCRP (Homo sapiens, UniProt Q9UNQ0); test: BCRP interaction; format: in vitro ADME
# T1 sequence (Q9UNQ0 1-655): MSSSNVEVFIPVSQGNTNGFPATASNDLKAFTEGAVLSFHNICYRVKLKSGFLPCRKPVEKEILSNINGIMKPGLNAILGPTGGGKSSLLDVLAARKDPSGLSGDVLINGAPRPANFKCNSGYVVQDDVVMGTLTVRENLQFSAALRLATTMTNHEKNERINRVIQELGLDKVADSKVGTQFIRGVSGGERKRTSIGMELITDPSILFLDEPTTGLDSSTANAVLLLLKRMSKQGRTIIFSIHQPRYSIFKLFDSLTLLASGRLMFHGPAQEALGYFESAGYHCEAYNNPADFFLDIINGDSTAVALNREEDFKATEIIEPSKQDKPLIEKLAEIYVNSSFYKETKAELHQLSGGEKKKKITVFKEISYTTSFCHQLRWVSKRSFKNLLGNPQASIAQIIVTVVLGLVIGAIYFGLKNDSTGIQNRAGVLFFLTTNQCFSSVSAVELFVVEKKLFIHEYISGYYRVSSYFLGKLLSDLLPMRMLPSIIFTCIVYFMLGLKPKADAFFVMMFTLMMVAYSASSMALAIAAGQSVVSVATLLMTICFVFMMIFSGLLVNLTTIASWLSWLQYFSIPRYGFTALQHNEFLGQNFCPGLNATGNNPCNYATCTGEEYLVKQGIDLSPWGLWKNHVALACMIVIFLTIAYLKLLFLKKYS
# [9] = test system: CL-34; test: 72 hr cell titer Glo proliferation assay, CL-34; format: cell-based; conditions: single agent, CL-34, BRAFV600E
# Experimental: as §1
# [10] = test system: MDST8; test: 72 hr cell titer Glo proliferation assay, MDST8; format: cell-based; conditions: single agent, MDST8, BRAFV600K
# Experimental: as §1
# [11] = test system: COLO 205; test: 72 hr cell titer Glo proliferation assay, COLO 205; format: cell-based; conditions: Homo sapiens, single agent, COLO 205, BRAFV600E
# Experimental: as §1
# [12] = Rat ADME bioavailability; format: in vivo; conditions: pre-clinical
# [13] = test system: RKO; test: 72 hr cell titer Glo proliferation assay, RKO; format: cell-based; conditions: Homo sapiens, single agent, RKO (PI3Kα mutation), BRAFV600E
# Experimental: as §1
# [14] = test system: SW1417; test: 72 hr cell titer Glo proliferation assay, SW1417; format: cell-based; conditions: Homo sapiens, single agent, SW1417, BRAFV600E
# Experimental: as §1
# CYP3A4, sequence (P08684 whole entry): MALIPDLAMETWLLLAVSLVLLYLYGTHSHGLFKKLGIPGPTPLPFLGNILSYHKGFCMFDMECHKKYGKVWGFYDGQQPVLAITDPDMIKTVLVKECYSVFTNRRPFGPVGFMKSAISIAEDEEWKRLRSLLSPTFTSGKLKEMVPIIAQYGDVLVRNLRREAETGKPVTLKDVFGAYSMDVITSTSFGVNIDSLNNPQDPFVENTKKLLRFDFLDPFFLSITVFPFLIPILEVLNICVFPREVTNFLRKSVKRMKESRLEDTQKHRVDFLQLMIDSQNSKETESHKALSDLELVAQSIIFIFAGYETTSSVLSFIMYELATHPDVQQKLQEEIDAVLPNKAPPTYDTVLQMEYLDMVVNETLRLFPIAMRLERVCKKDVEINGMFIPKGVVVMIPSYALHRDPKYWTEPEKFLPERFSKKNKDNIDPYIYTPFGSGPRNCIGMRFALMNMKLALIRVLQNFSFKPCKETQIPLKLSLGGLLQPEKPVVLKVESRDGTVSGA
SMILES,T/C [1] [%],Mean Volume Day 1 [1] [mm^3],Mean Volume Day 29 [1] [mm^3],Mean Volume Change (ΔT) [1] [mm^3],"Mean BW Nadir, day of nadir [1]",Deaths NTR [1],Deaths TR [1],Regressions CR [1],Regressions PR [1],Statistical Significance vs G1 [1],IC50 [2] [µM],IC50 [3] [µM],IC50 [6] [µM],IC50 [7] [µM],IC50 [9] [µM],IC50 [10] [µM],IC50 [11] [µM],IC50 [13] [µM],IC50 [14] [µM],further results
COC(=O)N[C@@H](C)CNc1nccc(-c2cn(C(C)C)nc2-c2cc(Cl)cc(NS(C)(=O)=O)c2F)n1 [Compound A],95,122,1016,894,Day 8,0,0,0,0,ns (not significant (ns) at P>0.05),0.018,> 2.7,0.049,> 2.7,0.03,0.319,0.005,–,–,metabolism [4]: mainly metabolized by CYP3A4; single agent activity on proliferation [5]: significant single agent activity; BCRP inhibition [8]: inhibitor of BCRP
"Cc1nc(NC(=O)N2CCC[C@H]2C(N)=O)sc1-c1ccnc(C(C)(C)C(F)(F)F)c1 [Compound B, (S)-Pyrrolidine-1,2-dicarboxylic acid 2-amide 1-({4-methyl-5-[2-(2,2,2-trifluoro-1,1-dimethyl-ethyl)-pyridin-4-yl]-thiazol-2-yl}-amide)]",57,122,660,538,Day 8,0,0,0,0,ns (not significant (ns) at P>0.05),> 2.7,> 2.7,> 2.7,> 2.7,> 2.7,–,> 2.7,> 2.7,> 2.7,bioavailability [12]: 58%; CYP3A4 inhibition [4]: time dependent inhibitor of CYP3A4; BCRP substrate [8]: substrate of BCRP
"C#Cc1cccc(Nc2ncnc3cc(OCCOC)c(OCCOC)cc23)c1 [Erlotinib, erlotinib, reference compound]",–,–,–,–,–,–,–,–,–,–,> 2.7,> 2.7,> 2.7,> 2.7,> 2.7,> 2.7,> 2.7,> 2.7,> 2.7,–
"CC(=O)O[C@H]1C(=O)[C@@]2(C)[C@H]([C@H](OC(=O)c3ccccc3)[C@]3(O)C[C@H](OC(=O)[C@H](O)[C@@H](NC(=O)c4ccccc4)c4ccccc4)C(C)=C1C3(C)C)[C@]1(OC(C)=O)CO[C@@H]1C[C@@H]2O [Paclitaxel, paclitaxel, reference compound]",11,122,229,107,Day 11,0,0,0,0,** (very significant (“**”) at 0.001<P≦0.01),–,–,–,–,–,–,–,–,–,–
